# From patent US20260223843A1, “I[…]” (FYTEKO SA, priority 2022, published 2026)
# Experiments:
# Type in all cases: in vivo
# [1] = tested on: brown plant hopper (Nilaparvata lugens); assay: Control of the brown plant hopper in rice plants (spray, mortality); settings: mortality of hopper larvae on sprayed rice plants; mg/L: Polyferulate 48, Chlorantraniliprole 45, Cyantraniliprole 135, combinations 48 + 45 and 48 + 135
# Experimental: To determine the efficacy of insecticides on the mortality percentage of brown planthopper an experiment was conducted in the laboratory. The seedlings of 30-40 days old rice plant (Oryza sativa) were transplanted in plastic pot. The rice plants were grown in plastic pots with Mylar film cage and kept in the laboratory. Rice plants are sprayed with the preparation of the active compound at the desired concentration and are infested with larvae of the brown plant hopper (Nilaparvata lugens) while the rice leaves are still moist. Ten brown planthopper were released in each pot that was selected randomly.
# The brown planthopper (BPH), Nilaparvata lugens (Hemiptera: Delphacidae) is a planthopper species that feeds on rice plants (Oryza sativa L.). These insects are among the most important pests of rice, which is the major staple crop for about half the world's population. After 3 days, the mortality in percentage is determined. 100% means that all the hopper larvae have been killed; 0% means that none of the hopper larvae have been killed.
# [2] = Insecticide uptake by leaves of rice plants (LC-MS/MS); settings: chlorantraniliprole in rice leaves 72 h after smearing 5 mL; chlorantraniliprole 100 μg/mL, polyferulate 25 μg/mL where present; three replicates
# Experimental: Rice plants were cultivated in a plant growth chamber with a 12 h day and high intensity lighting. The rice leaves near the roots were smeared with 5 mL of solution containing chlorantraniliprole (100 μg·mL−1) or chlorantraniliprole (100 μg·mL−1) and polyferulate solution (25 μg·mL−1) and covered. When the droplets on the leaves were dried, the plastic was taken away. The rice leaves were harvested 72 h after treated. A sample of the rice leaves (5 g) was weighted and extracted with acetonitrile and the content of uptake chlorantraniliprole determinate by LC-MS/MS. Each experiment was repeated for three replicates.
# [3] = tested on: whitefly (Bemisia tabaci); assay: Control of whitefly in cotton plants (translaminar efficacy); settings: 2nd instar nymphs on cotton leaf, adults counted, mg/L: Polyferulate 4, Spirotetramat 18.6, Imidacloprid 21.8, combinations 4 + 18.6 and 4 + 21.8
# Experimental: Three-week-old cotton plants were defoliated so that only one true leaf remained. 20-30 female adults of B. tabaci were clipped to the underside of the leaf for egg deposition and removed after 16 h. The silverleaf whitefly (Bemisia tabaci, also informally referred to as the sweet potato whitefly) is one of several species of whitefly that are currently important agricultural pests.
# Once the 2nd instar nymphs had settled the upper side of the leaf was sprayed using a TLC spraying device (Merck Inc.). Before spraying the number of nymphs was counted on each leaf. The application volume was 500 μL of tested insecticides solutions diluted in tap water. The final concentration of each component appears in the table. Translaminar efficacy was evaluated by counting adults 10 days after application.
SMILES,Observed efficacy (%) 3 days after treatment [1] [%],Content of insecticide in the plant material [2] [µg/g],Observed efficacy (%) 10 days after treatment [3] [%]
CNC(=O)c1cc(Cl)cc(C)c1NC(=O)c1cc(Br)nn1-c1ncccc1Cl [Chlorantraniliprole],50,38.0 ± 0.3,–
CNC(=O)c1cc(C#N)cc(C)c1NC(=O)c1cc(Br)nn1-c1ncccc1Cl [Cyantraniliprole],30,–,–
O=[N+]([O-])NC1=NCCN1Cc1ccc(Cl)nc1 [Imidacloprid],–,–,45
CCOC(=O)OC1=C(c2cc(C)ccc2C)C(=O)N[C@]12CC[C@@H](OC)CC2 [Spirotetramat],–,–,75
